Read-outs that look alike come from different tables or passages of the source.
Legend:
human GLP-1R [1] = target: human GLP-1R (Homo sapiens, UniProt P43220, G168S); test: CHO GLP-1R Clone H6 - Assay 1 (HTRF cAMP agonist assay); assay type: cell-based; conditions: for EC50: CHO GLP-1R Clone H6, cAMP HTRF, geometric mean; for Emax / Assay 1 Emax (%): CHO GLP-1R Clone H6, arithmetic mean, relative to saturating GLP-1 (1 μM)
human GLP-1R [2] = target: human GLP-1R (Homo sapiens (Human), UniProt P43220, L260F); test: CHO GLP-1R Clone C6 - Assay 2 (HTRF cAMP agonist assay, low receptor density); conditions: for Emax: read-out: Assay 2 Emax (%), CHO GLP-1R Clone C6 (low receptor density); for Emax / Assay 2 Emax (%): arithmetic mean, relative to saturating GLP-1 (1 μM)
Chain of human GLP-1R (Homo sapiens (Human), UniProt P43220, L260F) (P43220 24-463 L260F): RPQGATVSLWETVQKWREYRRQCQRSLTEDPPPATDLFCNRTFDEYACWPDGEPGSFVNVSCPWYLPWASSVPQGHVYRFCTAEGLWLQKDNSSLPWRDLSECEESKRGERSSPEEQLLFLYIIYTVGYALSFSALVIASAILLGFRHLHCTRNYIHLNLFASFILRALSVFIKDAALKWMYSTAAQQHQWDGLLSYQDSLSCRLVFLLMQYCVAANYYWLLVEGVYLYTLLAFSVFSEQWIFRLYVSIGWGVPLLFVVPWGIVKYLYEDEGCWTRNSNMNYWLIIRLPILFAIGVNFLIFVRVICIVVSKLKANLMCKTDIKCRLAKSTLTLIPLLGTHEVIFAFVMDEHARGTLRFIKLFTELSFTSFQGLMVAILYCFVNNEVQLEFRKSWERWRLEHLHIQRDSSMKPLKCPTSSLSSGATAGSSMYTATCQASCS

[3] = read-out: Assay 2 EC50, CHO GLP-1R Clone C6 (low receptor density), cAMP HTRF, geometric mean
[4] = Assay 2 EC50 (nM), CHO GLP-1R Clone C6 (low receptor density), cAMP HTRF, geometric mean
[5] = CHO GLP-1R Clone C6 (low receptor density)

Chain of human GLP-1R (Homo sapiens, UniProt P43220, G168S) (P43220 24-463 G168S limits assumed): as the sequence (P43220 24-463 L260F) above, with G145S, F237L counted along it

SMILES | EC50 (human GLP-1R [1]) | Emax (human GLP-1R [1]) | EC50 (human GLP-1R [2]; [3]) | Emax (human GLP-1R [2]) | Assay 1 Emax (%) (human GLP-1R [1]) | EC50 (human GLP-1R [2]; [4]) | Assay 2 Emax (%) (human GLP-1R [2]; [5]) | EC50 (human GLP-1R [2]; EC50 in Assay 2, CHO GLP-1R Clone C6, cAMP, geometric mean of replicates)
COCCn1c(CN2CCC(c3cccc4c3OC(C)(c3ccc(OC)cc3)O4)CC2)nc2ccc(C(=O)O)cc21 (centres unmarked) [Example 32, 1-(2-methoxyethyl)-2-({4-[2-(4-methoxyphenyl)-2-methyl-1,3-benzodioxol-4-yl]piperidin-1-yl}methyl)-1H-benzimidazole-6-carboxylic acid] | 18 nM | 86% | 450 nM | 87% | – | – | – | –
CC1(c2ccc(Cl)cc2F)Oc2cccc(C3CCN(Cc4nc5ccc(C(=O)O)cc5n4Cc4ncco4)CC3)c2O1 (centres unmarked) [Example 80, 2-({4-[2-(4-chloro-2-fluorophenyl)-2-methyl-1,3-benzodioxol-4-yl]piperidin-1-yl}methyl)-1-(1,3-oxazol-2-ylmethyl)-1H-benzimidazole-6-carboxylic acid] | 1.1 nM | 87% | 6.9 nM | 96% | – | – | – | –
COCCn1c(CN2CCC(c3cccc4c3OC(C)(c3ccc(C#N)cn3)O4)CC2)nc2ccc(C(=O)O)cc21 (centres unmarked) [Example 94, ammonium 2-({4-[2-(5-cyanopyridin-2-yl)-2-methyl-1,3-benzodioxol-4-yl]piperidin-1-yl}methyl)-1-(2-methoxyethyl)-1H-benzimidazole-6-carboxylate] | 12 nM | – | 360 nM | 87% | – | – | – | –
Cn1cc(CCn2c(CN3CCC(c4cccc5c4OC(C)(c4ccc(Cl)cc4F)O5)CC3)nc3ccc(C(=O)O)cc32)nn1 (centres unmarked) [Example 60, 2-({4-[2-(4-chloro-2-fluorophenyl)-2-methyl-1,3-benzodioxol-4-yl]piperidin-1-yl}methyl)-1-[2-(1-methyl-1H-1,2,3-triazol-4-yl)ethyl]-1H-benzimidazole-6-carboxylic acid] | 15 nM | 82% | 240 nM | 60% | – | – | – | –
COCCn1c(CN2CCC(c3cccc4c3OC(C)(c3ccc(C)cc3)O4)CC2)nc2ccc(C(=O)O)cc21 (centres unmarked) [Example 84, 1-(2-methoxyethyl)-2-({4-[2-methyl-2-(4-methylphenyl)-1,3-benzodioxol-4-yl]piperidin-1-yl}methyl)-1H-benzimidazole-6-carboxylic acid] | 9.1 nM | 93% | 100 nM | 86% | – | – | – | –
COCCn1c(CN2CCC(c3cccc4c3OC(C)(c3ccc(OC)cc3Cl)O4)CC2)nc2ccc(C(=O)O)cc21 (centres unmarked) [Example 83, 2-({4-[2-(2-chloro-4-methoxyphenyl)-2-methyl-1,3-benzodioxol-4-yl]piperidin-1-yl}methyl)-1-(2-methoxyethyl)-1H-benzimidazole-6-carboxylic acid] | 3.4 nM | 85% | 44 nM | 88% | – | – | – | –
COCCn1c(C2CC23CCN(c2cccc4c2OC(C)(c2ccc(Cl)cc2F)O4)CC3)nc2ccc(C(=O)O)cc21 (single isomer, unassigned) [Example 16, 2-{6-[2-(4-Chloro-2-fluorophenyl)-2-methyl-1,3-benzodioxol-4-yl]-6-azaspiro[2.5]oct-1-yl}-1-(2-methoxyethyl)-1H-benzimidazole-6-carboxylic Acid] | 7.7 nM | – | – | 64% | 90% | 120 nM | – | –
Cn1cnc(CCn2c(CN3CCC(c4cccc5c4OC(C)(c4ccc(Cl)cc4F)O5)CC3)nc3ccc(C(=O)O)cc32)c1 (centres unmarked) [Example 55, 2-({4-[2-(4-chloro-2-fluorophenyl)-2-methyl-1,3-benzodioxol-4-yl]piperidin-1-yl}methyl)-1-[2-(1-methyl-1H-imidazol-4-yl)ethyl]-1H-benzimidazole-6-carboxylic acid] | 74 nM | 81% | 1100 nM | 50% | – | – | – | –
CC1(c2ccc(C#N)cc2F)Oc2cccc(C3CCN(Cc4nc5ccc(C(=O)O)cc5n4C[C@@H]4CCO4)CC3)c2O1 (single isomer, unassigned) [Example 8] | 0.3 nM | 92% | – | 91% | – | 3.6 nM | – | –
COCCn1cnnc1Cn1c(CN2CCC(c3cccc4c3OC(C)(c3ccc(Cl)cc3F)O4)CC2)nc2ccc(C(=O)O)cc21 (centres unmarked) [Example 70, 2-({4-[2-(4-chloro-2-fluorophenyl)-2-methyl-1,3-benzodioxol-4-yl]piperidin-1-yl}methyl)-1-{[4-(2-methoxyethyl)-4H-1,2,4-triazol-3-yl]methyl}-1H-benzimidazole-6-carboxylic acid] | 2.8 nM | 100% | 97 nM | 100% | – | – | – | –
CCn1cncc1Cn1c(CN2CCC(c3cccc4c3O[C@@](C)(c3ccc(Cl)cc3F)O4)CC2)nc2ccc(C(=O)O)cc21 (single isomer, unassigned) [Example 17, Ammonium 2-({4-[2-(4-chloro-2-fluorophenyl)-2-methyl-1,3-benzodioxol-4-yl]piperidin-1-yl}methyl)-1-[(I-ethyl-1H-imidazol-5-yl)methyl]-1H-benzimidazole-6-carboxylate] | 0.079 nM | – | 1.1 nM | – | – | – | – | –
CC1(c2ccc(C#N)cc2F)Oc2cccc(C3CCN(Cc4nc5ccc(C(=O)O)cc5n4Cc4ncco4)CC3)c2O1.N (centres unmarked) [Example 99, ammonium 2-({4-[2-(4-cyano-2-fluorophenyl)-2-methyl-1,3-benzodioxol-4-yl]piperidin-1-yl}methyl)-1-(1,3-oxazol-2-ylmethyl)-1H-benzimidazole-6-carboxylate] | 2.8 nM | – | 5.4 nM | – | 99% | – | 91% | –
CC1(c2ccc(Cl)cc2F)Oc2cccc(C3CCN(Cc4nc5ccc(C(=O)O)cc5n4C[C@H]4CCCO4)CC3)c2O1 (stereo partly drawn) [Example 64, 2-({4-[2-(4-chloro-2-fluorophenyl)-2-methyl-1,3-benzodioxol-4-yl]piperidin-1-yl}methyl)-1-[(2R)-tetrahydrofuran-2-ylmethyl]-1H-benzimidazole-6-carboxylic acid] | 9.2 nM | 94% | 91 nM | 80% | – | – | – | –
CC1(c2ccc(Cl)cc2F)Oc2cccc(C3CCN(Cc4nc5ccc(C(=O)O)cc5n4CCn4cccn4)CC3)c2O1 (centres unmarked) [Example 53, 2-({4-[2-(4-chloro-2-fluorophenyl)-2-methyl-1,3-benzodioxol-4-yl]piperidin-1-yl}methyl)-1-[2-(1H-pyrazol-1-yl)ethyl]-1H-benzimidazole-6-carboxylic acid] | 3.1 nM | 87% | 52 nM | 84% | – | – | – | –
CC1(c2ccc(C#N)cc2F)Oc2cccc(C3CCN(Cc4nc5ccc(C(=O)O)cc5n4C[C@@H]4CCO4)CC3)c2O1 (single isomer, unassigned) [Example 9] | 73 nM | – | – | – | 88% | 1600 nM | 90% | –
C[C@]1(c2ccc(Cl)cc2F)Oc2cccc(C3CCN(Cc4nc5ccc(C(=O)O)cc5n4C[C@@H]4CCO4)CC3)c2O1 [Example 7, Ammonium 2-({4-[(2S)-2-(4-chloro-2-fluorophenyl)-2-methyl-1,3-benzodioxol-4-yl]piperidin-1-yl}methyl)-1-[(2S)-oxetan-2-ylmethyl]-1H-benzimidazole-6-carboxylate] | 0.26 nM | 98% | – | 93% | – | 3.1 nM | – | 2.9 nM

Source: US10676465B2, “GLP-1 receptor agonists and uses thereof” (Pfizer Inc., priority 2018, dated 2020)
